Test results taken from US20040171489A1, “Synergistic active compound combinations for controlling harmful plants” (priority 1998, published 2004).

Assays:
[1] = tested on: Lamium purpurea; assay: Example 12 field trial, 2- to 4-leaf stage: herbicidal effect; type: in vivo; settings: 42 days after application
Experimental: (§1) The herbicidal efficacy of the active compounds or active compound mixtures was scored visually using the treated plots in comparison to untreated control plots. The damage and development of all above-ground parts of the plants were recorded. Scoring was carried out using a percentage scale (100% effect=all plants killed; 50% effect=50% of the plants and the green parts of the plants killed; 0% effect=no noticeable effect=like control plot. The scores of in each case 4 plots were averaged.
(§2) If the observed activity values already exceed the formal sum of the values for the trials with the individual applications, they also exceed the expected value according to Colby which is calculated using the following formula and which is likewise considered to be an indication of synergism (cf. S. R. Colby; in Weeds 15 (1967) p. 20 to 22):
(§3) Crop plants were grown outdoors on plots under natural outdoor conditions, and seeds or rhizome pieces of typical harmful plants were laid out or the natural weed growth was utilized. Treatment with the compositions according to the invention was carried out after the harmful plants had emerged and the crop plants were, generally, at the 2- to 4-leaf stage; in some cases (as stated), application of individual active compounds or active compound combinations was carried out pre-emergence (cf. Section 1) or post-emergence (cf. Section 2) or as a sequential treatment partly pre-emergence and/or post-emergence. After the application, for example 2, 4, 6 and 8 weeks after the application, the effect of the preparations was scored visually by comparison with untreated controls (cf. scoring in Section 1). In the field trial as well, the compositions according to the invention have synergistic herbicidal activity against a broad spectrum of economically important weed grasses and broad-leaved weeds. […] Moreover, the effects in essential phases of the scoring period were above the expected values according to Colby, also indicating synergism. In contrast, the crop plants were, as a consequence of the treatments with the herbicidal compositions, damaged only to a small degree, if at all.

[2] = tested on: summer wheat; assay: Example 13 field trial, 2- to 4-leaf stage: crop damage; type: in vivo, Triticum aestivum; settings: 17 days after application
Experimental: as §1, §2, §3

[3] = tested on: winter barley; assay: Example 9 field trials, application 1-3 leaf stage broad-leaved weeds: crop damage; type: in vivo, Hordeum vulgare; settings: 100 g of ai/ha; 120 to 160 days after application
Experimental: as §1, §2
as §3, with “In contrast, the crop plants were, as a consequence of the treatments with the herbicidal compositions, damaged only to a small degree, if at all.” left out

[4] = tested on: Euphorbia heterophylla; assay: Example 20 field trial, 3-leaf stage: herbicidal effect; type: in vivo; settings: 31 days after application
Experimental: as §1, §2, §3

[5] = tested on: Galium aparine; assay: Example 10 pre-emergence application, fall: herbicidal effect; type: in vivo; settings: 169 days after application
Text: (§4) Seeds or rhizome pieces of monocotyledonous and dicotyledonous weed plants are placed in sandy loam soil in pots and covered with soil. The compositions, formulated in the form of concentrated aqueous solutions, wettable powders or emulsion concentrates, are then applied to the surface of the soil cover as aqueous solution, suspension or emulsion at an application rate of 600 to 800 l of water/ha (converted), in various dosages. After the treatment, the pots are placed in a greenhouse and kept under good growth conditions for the weeds. After the test plants have emerged, the damage to the plants or the negative effects on the emergence is scored visually after a test period of 3 to 4 weeks by comparison with untreated controls. As shown by the test results, the compositions according to the invention have good herbicidal pre-emergence activity against a broad spectrum of weed grasses and broad-leaved weeds.
as §1, §2, §3

[6] = tested on: Elusine indica; assay: Example 18 field trial, 3-leaf stage: herbicidal effect; type: in vivo; settings: 100 g of ai/ha; 31 days after application
Experimental: as §1, §2
as §3, with “In contrast, the crop plants were, as a consequence of the treatments with the herbicidal compositions, damaged only to a small degree, if at all.” left out

[7] = tested on: winter wheat; assay: Example 10 pre-emergence application, fall: crop damage; type: in vivo, Triticum aestivum; settings: 169 days after application
Text: as §4, §1, §2, §3

[8] = tested on: winter wheat; assay: Example 11 field trial, 2- to 4-leaf stage: crop damage; type: in vivo, Triticum aestivum; settings: 28 days after application
Experimental: as §1, §2, §3

[9] = tested on: Galium aparine; assay: Example 16 field trial, post-emergence, 2- to 3-leaf stage: herbicidal effect; type: in vivo; settings: 50 g of ai/ha; 69 days after application
Experimental: as §1, §2, §3

[10] = tested on: Matricaria chamomilla; assay: as above; type: in vivo; settings: 50 g of ai/ha; 69 days after application
Experimental: as §1, §2, §3

[11] = tested on: Lamium ssp.; assay: as above; type: in vivo; settings: 50 g of ai/ha; 69 days after application
Experimental: as §1, §2, §3

[12] = tested on: Anthemis arvensis; assay: as above; type: in vivo; settings: 50 g of ai/ha; 69 days after application
Experimental: as §1, §2, §3

[13] = tested on: Papaver rhoeas; assay: as above; type: in vivo; settings: 50 g of ai/ha; 69 days after application
Experimental: as §1, §2, §3

[14] = tested on: Myosotis arvensis; assay: as above; type: in vivo; settings: 50 g of ai/ha; 69 days after application
Experimental: as §1, §2, §3

[15] = tested on: Viola arvensis; assay: as above; type: in vivo; settings: 50 g of ai/ha; 69 days after application
Experimental: as §1, §2, §3

[16] = tested on: summer wheat; assay: Example 14 field trial, 2- to 4-leaf stage: crop damage; type: in vivo, Triticum aestivum; settings: 28 days after application
Experimental: The damage and development of all above-ground parts of the plants were recorded.
Crop plants were grown outdoors on plots under natural outdoor conditions, and seeds or rhizome pieces of typical harmful plants were laid out or the natural weed growth was utilized.

[17] = tested on: winter wheat; assay: Example 9 field trials, application 1-3 leaf stage broad-leaved weeds: crop damage; type: in vivo, Triticum aestivum; settings: 100 g of ai/ha; 120 to 160 days after application
Experimental: as §1, §2
as §3, with “In contrast, the crop plants were, as a consequence of the treatments with the herbicidal compositions, damaged only to a small degree, if at all.” left out

CC(C)(F)c1nc(N)nc(NC(CCc2ccccc2)C2CCC2)n1 (centres unmarked) [(A1), 4-amino-6-(1-fluoro-1-methylethyl)-2-(3-phenyl-1-cyclobutylpropylamino)-1,3,5-triazine]
herbicidal effect, LAMPU ([1]; 12.5 g of ai/ha): 25%
herbicidal effect, LAMPU ([1]; 25 g of ai/ha): 65%
herbicidal effect, LAMPU ([1]; 50 g of ai/ha): 70%
damage, TRZAS ([2]; 62.5 g of ai/ha): 5%
damage, TRZAS ([2]; 125 g of ai/ha): 13%
damage, HORVW [3]: 0%
herbicidal effect, EPHHL ([4]; 25 g of ai/ha): 15%
herbicidal effect, EPHHL ([4]; 50 g of ai/ha): 50%
herbicidal effect, EPHHL ([4]; 100 g of ai/ha): 60%
herbicidal effect, GALAP ([5]; 50 g of ai/ha): 45%
herbicidal effect, GALAP ([5]; 100 g of ai/ha): 45%
herbicidal effect, ELEIN [6]: 0%
damage, TRZAW ([7]; 50 g of ai/ha): 1%
damage, TRZAW ([7]; 100 g of ai/ha): 2%
damage, TRZAW ([8]; 25 g of ai/ha): 0%
damage, TRZAW ([8]; 50 g of ai/ha): 1%
damage, TRZAW ([8]; 75 g of ai/ha): 1%
damage, TRZAW ([8]; 100 g of ai/ha): 2%
herbicidal effect (%), GALAP [9]: 66%
herbicidal effect (%), MATCH [10]: 19%
herbicidal effect (%), LAMSS [11]: 53%
herbicidal effect (%), ANTAR [12]: 0%
herbicidal effect (%), PAPRH [13]: 96%
herbicidal effect (%), MYOAR [14]: 81%
herbicidal effect (%), VIOAR [15]: 90%
damage, TRZAS ([16]; 25 g of ai/ha): 2%
damage, TRZAS ([16]; 50 g of ai/ha): 2%
damage, TRZAS ([16]; 100 g of ai/ha): 5%
damage, TRZAW [17]: 0%
